Results taken from publication PMC5097879 (European journal of medicinal chemistry, 2016).
Structures can show the parent of a compound that is named as a salt. Where two headings read alike, the source gives them in different places.

Key:
[1] = biological target: human α4β2-nAChRs (mixture of HS and LS) (Homo sapiens, UniProt P17787+P43681); conditions: SH-EP1-hα4β2 cells; ref [8], [9]; cited from earlier work
HS α4β2-nAChR [2] = biological target: T1, HS α4β2-nAChR (Homo sapiens, UniProt P17787+P43681); conditions: relative to carbamylcholine; ref [8], [9]; cited from earlier work
LS α4β2-nAChR = LS α4β2-nAChR (Homo sapiens, UniProt P17787+P43681); conditions: relative to carbamylcholine; ref [8], [9]; cited from earlier work
[3] = ref [12]; cited from earlier work
[4] = system: high sensitivity (HS) α4β2-nAChR; conditions: oocytes expressing human nAChRs; ref [15], [16]; cited from earlier work
α7 subtype = conditions: read-out: Ki α7 subtype; ref [15], [16]; cited from earlier work
HS α4β2-nAChR [5] = biological target: T1, HS α4β2-nAChR; test: 86Rb+ ion efflux assay, efficacy at HS α4β2; type: cell-based; conditions: relative to full agonist carbamylcholine; ± SEM
mice [6] = test: SmartCube behavioral platform; type: in vivo, mouse; conditions: 15 min preinjection; for SmartCube behavioral signature, extent of effect: 5 and 10 mg/kg i.p.; for SmartCube behavioral signature, 10 mg/kg compared to 5 mg/kg: i.p.
mice [7] = test: Mouse forced swim test; type: in vivo; conditions: BALB/cJ mice, 6-min test, P < 0.05
rat α4β2 nAChR = rat α4β2 nAChR (Rattus norvegicus, UniProt P09483+P12390); type: binding; conditions: versus the N-H analogue
[8] = biological target: α4β2* endogenous receptors prepared from rat forebrain (Rattus norvegicus, UniProt P09483+P12390); test: [3H]epibatidine binding competition, α4β2*; conditions: versus the N-H analogue
β2-nAChRs = test: [3H]epibatidine binding competition, β2-nAChRs overall; design: species or system rat; conditions: versus parent compound 8

SMILES: c1cnc2cc3c(cc2n1)[C@@H]1CNC[C@H]3C1 [Compound 1, varenicline]
- Inactivation Efficacy [1]: 83 ± 1.0%
- Agonism HS-α4β2 Efficacy (HS α4β2-nAChR [2]): 106 ± 5.9%
- Agonism LS-α4β2 Efficacy (LS α4β2-nAChR): 34 ± 3.3%

SMILES: Clc1ccc(OC[C@H]2CCN2)cn1 [Compound 5]
- stability in the presence of HCl or TFA following exposure to water [3]: dimerize to compound 6

SMILES: c1cncc(N2CCCNCC2)c1 [Compound 7, 1-(pyridin-3-yl)-1,4-diazepane]
- efficacy relative to acetylcholine at HS α4β2-nAChR [4]: 41%
- Ki (α7 subtype): 136 nM

SMILES: COCC[C@H]1C[C@@H]1c1cncc(N2CCCNCC2)c1 [Compound 21, 1-[5-[(1S,2R)-2-(2-Methoxyethyl)cyclopropyl]pyridin-3-yl]-1,4-diazepane trifluoroacetate]
- Agonism HS-α4β2 Efficacy (HS α4β2-nAChR [5]): 58–81%
- SmartCube behavioral signature, extent of effect (mice [6]): most prominent effects
- SmartCube behavioral signature, 10 mg/kg compared to 5 mg/kg (mice [6]): fairly similar behavioral signature
- total immobility time compared to control group (water) (mice [7]; acute PO 1 mg/kg): significantly decreased
- total immobility time compared to control group (water) (mice [7]; acute PO 10 mg/kg): significantly decreased

SMILES: COCC[C@H]1C[C@@H]1c1cncc(N2CCCN(C)CC2)c1 [Compound 22, 1-[5-[(1S,2R)-2-(2-methoxyethyl)cyclopropyl]pyridin-3-yl]-4-methyl-1,4-diazepane trifluoroacetate]
- drop in binding affinity at α4β2 caused by N-methyl group (rat α4β2 nAChR): more than 10 fold
- drop in binding affinity at α4β2* caused by N-methyl group [8]: more than 10 fold

SMILES: COCC[C@H]1C[C@@H]1c1cncc(N2C[C@@H]3C[C@H]2CN3)c1 [Compound 23, (1S,4S)-2-[5-[(1S,2R)-2-(2-methoxyethyl)cyclopropyl]pyridin-3-yl]-2,5-diazabicyclo[2.2.1]heptane]
- decline in binding affinities at β2-nAChRs (β2-nAChRs): ≥ 6 fold

SMILES: COCC[C@@H]1C[C@H]1c1cncc(N2CCCNCC2)c1 [Compound 25, 1-[5-[(1R,2S)-2-(2-methoxyethyl)cyclopropyl]pyridin-3-yl]-1,4-diazepane]
- Agonism HS-α4β2 Efficacy (HS α4β2-nAChR [5]): 58–81%
- SmartCube behavioral signature, extent of effect (mice [6]): most prominent effects
- SmartCube behavioral signature, 10 mg/kg compared to 5 mg/kg (mice [6]): marked increase

SMILES: COCC[C@@H]1C[C@H]1c1cncc(N2C[C@@H]3C[C@H]2CN3)c1 [Compound 26, (1S,4S)-2-[5-[R,2S)-(2-(2-methoxyethyl)cyclopropyl]pyridin-3-yl]-2,5-diazabicyclo[2.2.1]heptane]
- decline in binding affinities at β2-nAChRs (β2-nAChRs): ≥ 6 fold

SMILES: OCCc1cc(-c2cncc(N3CCCNCC3)c2)on1 [Compound 30]
- Agonism HS-α4β2 Efficacy (HS α4β2-nAChR [5]): 58–81%
- SmartCube behavioral signature, extent of effect (mice [6]): most prominent effects
- SmartCube behavioral signature, 10 mg/kg compared to 5 mg/kg (mice [6]): marked increase
